Our source for the logD values is ChEMBL document CHEMBL1821550 (Bioorg Med Chem Lett, 2011).

This data set in a line: physchem. The settings on record: octanol/water.
`C=C(N(C)Cc1ccc(-c2ccccc2)cc1)N1CCN(C(C)C)CC1` yielded a logD of 1.8.
The figure for `c1ccc(-c2ccc(OCCCN3CCCCC3)cc2)cc1` is 2.9; for `CN(Cc1ccc(-c2ccccc2)cc1)C(=O)N1CCC[C@H]1CN1CCCC1` it is 2.6; for `CC(C)N1CCN(C(=O)N2CCC(C(=O)OC(C)(C)C)CC2)CC1` it is 0.6.
For `O=C(/C=C/c1ccc(C(F)(F)F)cc1)N1CCC[C@H]1CN1CCCC1` the value was 2.4; for `CC(C)N1CCN(C(=O)N2CCC(C(=O)N3CC4CCC(CC4)C3)CC2)CC1`, 0.9; for `O=C(NCc1ccc(C(F)(F)F)cc1)N1CCC[C@H]1CN1CCCC1`, 1.8.
For `COc1cc2c(cc1OC)CN(C(=O)N1CCN(C(C)C)CC1)CC2` the value was 1.
`CC(C)N1CCN(C(=O)N2CCC(Cc3ccccc3)CC2)CC1`: the log distribution coefficient (logD) came to 2.
The figure for `CC(C)N1CCN(C(=O)N2Cc3ccccc3C2)CC1` is 0.7; for `CC(C)N1CCN(C(=O)N2CCc3ccccc3C2)CC1` it is 1; for `CC(C)N1CCN(C(=O)N2CCC(NC(=O)C3CCCC3)CC2)CC1` it is 0.2.
The figure for `O=C(N1CCN(C2CC2)CC1)N1Cc2ccccc2C1` is 0.1; for `CC(C)N1CCN(C(=O)N2CCC(c3ccccc3)CC2)CC1` it is 1.6.
`CC(C)N1CCN(C(=O)N2CC=C(c3ccccc3)CC2)CC1` had a logD of 1.4.
The figure for `O=C(N1Cc2ccccc2C1)N1CCC[C@H]1CN1CCCC1` is 0.9; for `O=C(N1CCN(C2CCCC2)CC1)N1Cc2ccccc2C1` it is 1.1; for `Cn1c(-c2ccc(OC3CCN(C4CCC4)CC3)cc2)nc2c(F)cccc2c1=O` it is 2.4.
The figure for `COc1nccc2c(=O)n(C)c(-c3ccc(OC4CCN(C5CCC5)CC4)cc3)nc12` is 1.6; for `Cc1nc2cccc(C(F)(F)F)c2c(=O)n1-c1ccc(OCCCN2CCCC2)cc1` [MK-0249] it is 2.6.

For orientation: logD means lipophilicity at a set pH, counting ionised and neutral species. Lower therefore signals lower lipophilicity.
